Laboratory results: ChEMBL document CHEMBL5303711, “ECBD screening data for assay EOS300108” (2023)
Activity calls are given as the source filed them. How the calls were made is not given here.

Experiment: Cytotoxicity activity against human HepG2 cells assessed by CellTiter-Glo luminescent cell viability assay.
Format: toxicity, cell-based
Design: assay stage confirmatory assay, source tissue liver
Conditions: HepG2 cells, read-out: IC50 relative

Structure (SMILES)	CC50
O=C(Cn1ncc(Cl)c(Cl)c1=O)N1CCC[C@H]1c1cccs1	4.2 µM (active)
CCc1ccc(NC(=O)Nc2ccc3c(c2)N(S(C)(=O)=O)CC3)cc1	2.3 µM (active)
Cc1cc(C(=O)Nc2cccc(N(C)C(=O)c3coc(C)c3)c2)co1	1.3 µM (active)
CC(C)CN1CCN(Cc2nc(Cn3ccn4nc(-c5ccccc5)cc4c3=O)no2)CC1	13.6 µM (active)
Cc1cc(NC(=O)N[C@H]2CCN(CC3CCCC3)C2)cc(N2CCN(C)CC2)c1	9.3 µM (active)
CN(C)c1ccc(C(=O)NCCCCCCC(=O)NO)cc1	0.9 µM (active)
COc1cc(F)c(F)c(Nc2ccc(I)cc2F)c1NS(=O)(=O)C1(C[C@H](O)CO)CC1 [REFAMETINIB]	0.1 µM (active)
CN(C)c1ccc(C(=C2C=CC(=[N+](C)C)C=C2)c2ccc(N(C)C)cc2)cc1 [GENTIAN VIOLET]	14.6 µM (inactive)
NC1(Cc2ccc(Cl)cc2)CCN(c2ncnc3[nH]ccc23)CC1	6.7 µM (active)
CC(C)NC(=O)N1CC(Oc2ccc(-c3noc(C4CCOCC4)n3)cc2)C1	4.1 µM (active)
COc1ccccc1N1CCN(S(=O)(=O)c2ccc3c4c(cccc24)C(=O)N3)CC1	10.8 µM (inactive)
COc1cc(OC)cc(-c2nnc(Nc3nc4c(F)cccc4s3)o2)c1	27.8 µM (inactive)
O=C(NCCCNc1nc(Nc2cccc(NC(=O)N3CCCC3)c2)ncc1I)c1cccs1 [BX-795]	5.2 µM (active)
COc1ccc2oc(C(=O)Nc3ncccc3O)c(C)c2c1	47.2 µM (inactive)
CC(C)Oc1ccc(C(=O)Nc2ccc3c(c2)N(S(C)(=O)=O)CCC3)cc1	2.7 µM (active)
CNc1nc(Nc2ccc(C(=O)N3CCOCC3)cc2OC)nc2[nH]cc(Cl)c12	5 µM (active)
CCN(CC)CCNC(=O)C1CCN(c2nn3cc(-c4ccc(OC)cc4)nc3s2)CC1	2.7 µM (active)
CCOc1cc(C(C)(C)C)ccc1C1=N[C@@](C)(c2ccc(Cl)cc2)[C@@](C)(c2ccc(Cl)cc2)N1C(=O)N1CCN(CCCS(C)(=O)=O)CC1 [RO-5045337]	6.3 µM (active)
Cc1ccc(NC(=O)c2ccc(CN3CC[C@H](N(C)C)C3)c(C(F)(F)F)c2)cc1Nc1nccc(-c2cncnc2)n1 [BAFETINIB]	0.9 µM (active)
O=C(Nc1nc(-c2ccc(S(=O)(=O)N3CCOCC3)cc2)cs1)c1cccs1	5.3 µM (active)
COc1ccc(C(=O)N2CCN(c3ncnc4cccc(F)c34)CC2)cc1	9.4 µM (active)
O=C(Nc1ccnc2ccnn12)c1ccc2ccccc2n1	1.4 µM (active)

Structure (SMILES)	CC50
CCCCc1cc(=O)oc2c(C)c(OCC(=O)NCCN(C)C)ccc12	13 µM (inactive)
COc1ccc2[nH]c(C(=O)c3ccccc3)cc2c1	0.2 µM (inactive)
COc1ccc(CN(Cc2cn3c(C)cccc3n2)C2CC2)c(OC)c1	9.7 µM (active)
CC(C)(C)NS(=O)(=O)c1ccc(C(=O)Nc2ccc(Oc3cccnc3)nc2)o1	11.8 µM (inactive)
O=C(Nc1nnc2ccccn12)c1ccc(F)c(Cl)c1	2.7 µM (active)
COc1cc2c3c(n(CCCNCCO)c(=O)c2cc1OC)-c1cc2c(cc1C3=O)OCO2	1.1 µM (active)
CNc1c(Cl)ncnc1NCc1cccc(Cn2cccn2)c1	1.4 µM (active)
COC(=O)[C@H]1[C@H]2C[C@@H]3c4[nH]c5cc(OC)ccc5c4CCN3C[C@H]2C[C@@H](OC(=O)c2cc(OC)c(OC)c(OC)c2)[C@@H]1OC [RESERPINE]	11.8 µM (active)
NNc1ncnc2ccc(Br)cc12	2.4 µM (active)
CN(C)C/C=C/C(=O)Nc1ccc(C(=O)Nc2cccc(Nc3ncc(Cl)c(-c4c[nH]c5ccccc45)n3)c2)cc1	< 0.1 µM (active)
CCN(CC)S(=O)(=O)c1cccc(C(=O)Nc2cccc(F)c2)c1	10.4 µM (active)
O=C(Nc1ccc(I)cc1)c1ccc(CN2CCOCC2)cc1	7.7 µM (inactive)
COc1ccc(C)cc1S(=O)(=O)N1CCCC(C(=O)N2CCN(c3ccccc3F)CC2)C1 (stereo not given)	9.9 µM (inactive)
CCCCNc1ncc(C(=O)NCc2ccc(-n3ccnc3)cc2)c(N[C@H]2CC[C@H](O)CC2)n1	2.8 µM (active)
CC[C@H](CO)Nc1nc(NCc2ccccc2)c2ncn(C(C)C)c2n1 [SELICICLIB]	7.8 µM (active)
CCN(Cc1nc2cc(OC)c(OC)cc2c(=O)[nH]1)C(=O)c1ccc2c(c1)OCO2	12.7 µM (active)
OC1(CNCCSCc2cccc(Cl)c2)CCNC1 (stereo not given)	8.4 µM (active)
O=C(NCCc1ccco1)c1cc2ccccc2cc1O	8.5 µM (active)
COc1c(C)cnc(Cn2cnc3c(Cl)nc(N)nc32)c1C [BIIB021]	0.4 µM (active)
O=C(c1cc(-c2ccco2)on1)N1CCc2ccccc21	8.6 µM (active)
CC1(C)C2CC=C(CN(CCN3CCNCC3)C(=O)c3ccccc3Cl)C1C2 (stereo not given)	14.3 µM (inactive)
Cn1nc(-c2ccc(C(F)(F)F)cc2)nc2c(=O)n(C)c(=O)nc1-2	1.1 µM (active)

Structure (SMILES)	CC50
CC(C)(O)CC(=O)NCCn1ccc2ncnc(Nc3ccc(Oc4cccc(C(F)(F)F)c4)c(Cl)c3)c21 [TAK-285]	10.5 µM (active)
CN([C@H]1CCN(c2ccccc2F)C1=O)S(=O)(=O)c1cccc2cnccc12	4.3 µM (active)
COc1ccc(N2C(=O)/C(=C\c3ccc(O)c(Br)c3)SC2=S)cc1	10.3 µM (active)
c1ccc(-c2nc3n(n2)Cc2ccccc2-3)cc1	2.7 µM (active)
CC1CCC/C=C\C2CC(O)CC2C(O)/C=C\C(=O)O1 (stereo not given)	< 0.1 µM (active)
Cc1cccc2nc(C(=O)Nc3cccnc3-n3cccn3)cn12	7 µM (active)
COc1cccc(-c2ccc(=O)n(CC(=O)Nc3ccccn3)n2)c1	6.8 µM (active)
CC(C)(C)c1nccc(NC(=O)c2ccc(F)c(C#N)c2)n1	1.2 µM (active)
Cn1cc(S(=O)(=O)N2CCC[C@@H]2COc2ccc(F)cc2)cc1C(N)=O	0.6 µM (active)
CCC(C)NC(=O)N1CC(Oc2ccc(-c3noc(C4CC4)n3)cc2)C1 (stereo not given)	3.5 µM (active)
COc1cc(/C=C2\CCCN([C@@H](C)c3ccc(F)cc3)C2=O)ccc1-n1cnc(C)c1	12.8 µM (active)
O=S(=O)(c1ccc(F)cc1)N1CCN(c2ccc(Nc3ccncc3)nn2)CC1	13.6 µM (inactive)
Cc1cc(C)cc(C(=O)NOCCCCCC(=O)NO)c1	0.5 µM (active)
CC(=O)Nc1cccc(-n2c(=O)n(C3CC3)c(=O)c3c(Nc4ccc(I)cc4F)n(C)c(=O)c(C)c32)c1 [TRAMETINIB]	< 0.1 µM (active)
COc1ccc(NC(=O)c2nc(S(C)(=O)=O)ncc2Br)cc1	1.9 µM (active)
COc1ccc(CN2CCN(CCSC)CC2)c2c(OC)cccc12	12.6 µM (inactive)
Cc1cc(N2CCN([C@@H](C)c3nc(C(C)(C)C)no3)CC2)nc(C(C)C)n1	11.9 µM (active)
Cc1ccc(-c2cccc(CN3[C@@H]4CC[C@H]3[C@H]3CNC[C@H]34)c2)o1	8.8 µM (active)
Cc1ncc(NC(=O)c2ccc(CN3CCN(C)CC3)c(C(F)(F)F)c2)cc1Nc1nccc(-c2cccnc2)n1 [FLUMATINIB]	3.3 µM (active)
CN1CCNc2cc(Br)ccc21	15.3 µM (inactive)
COc1ccc2cc3[n+](cc2c1OC)CCc1cc2c(cc1-3)OCO2 [BERBERINE CHLORIDE]	14.4 µM (inactive)
